Reference: PubChem BioAssay (NCI)
Where “and” joins values, the source holds several entries; their conditions need not be identical. Equal values may be shown once.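 Tested at 5 concentrations; 48 h exposure; 96-well plates; endpoints linearly interpolated, else capped at highest concentration. GI50 = concentration required for 50% inhibition of growth. TGI denotes the concentration required for complete inhibition of growth.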

What was measured:
Assay in all cases: inhibition of tumour cell growth, NCI panel, 48 h
SF-295 CNS = tested on: SF-295 CNS
MCF7 breast = tested on: MCF7 breast
MALME-3M melanoma = tested on: MALME-3M melanoma
UACC-257 melanoma = tested on: UACC-257 melanoma
MDA-MB-231 breast = tested on: MDA-MB-231 breast
OVCAR-5 ovarian = tested on: OVCAR-5 ovarian
SK-MEL-28 melanoma = tested on: SK-MEL-28 melanoma
RXF 393 renal = tested on: RXF 393 renal
SW-620 colon = tested on: SW-620 colon
LOX IMVI melanoma = tested on: LOX IMVI melanoma

Structure (SMILES)	TGI (SF-295 CNS) [µM]	TGI (MCF7 breast) [µM]	TGI (MALME-3M melanoma) [µM]	TGI (UACC-257 melanoma) [µM]	TGI (MDA-MB-231 breast) [µM]	TGI (OVCAR-5 ovarian) [µM]	TGI (SK-MEL-28 melanoma) [µM]	TGI (RXF 393 renal)	TGI (SW-620 colon) [µM]	GI50 (SF-295 CNS) [µM]	GI50 (MCF7 breast) [µM]	GI50 (MALME-3M melanoma) [µM]	GI50 (MDA-MB-231 breast) [µM]	GI50 (OVCAR-5 ovarian) [µM]	GI50 (SK-MEL-28 melanoma) [µM]	GI50 (LOX IMVI melanoma) [µM]	TGI (LOX IMVI melanoma) [µM]	GI50 (RXF 393 renal) [µM]	GI50 (SW-620 colon) [µM]	GI50 (UACC-257 melanoma) [µM]
NC(=S)c1cccc(C2Nc3ccccc3O2)c1 (stereo unspecified)	> 100	> 100	> 100	> 100	> 100	> 100	> 100	> 100 µM	> 100											
CN(CCOc1ccc(NS(C)(=O)=O)cc1)CCc1ccc(NS(C)(=O)=O)cc1	> 100	> 100	> 100		> 100	> 100	> 100	> 100 µM	> 100	> 100	> 100	> 100	> 100	> 100	> 100	> 100	> 100	> 100	> 100	
N#C/C(=C/C=C/c1cccc(Cl)c1)S(=O)c1ccccc1 (stereo unspecified)	2.88		2.69	3.16	1.4	1.7	2.68	0.568 µM		1.3		1.05	0.384	0.391	1.23	0.175	0.343	0.233		1.64
COc1c2c(c(O)c3c4c(c(C)cc13)C1OC3(C(OC)OC5CC(C)(O)C(OC6CC(C)(O)C(O)C(C)O6)C(C)O5)OC1C(OC)(O4)C31CO1)C(=O)C(O)CC2OC1CC(C)(O)C(OC(C)=O)C(C)O1 (stereo unspecified)	< 0.023		< 0.01	< 0.01		< 0.01		< 0.01 µM	1.23											
NCCOCCOCC(=O)O	> 100		> 100	> 100		> 100	> 100	> 100 µM	> 100											
O=S1(=O)CCC2=CC(C(F)(F)F)=CC(C(F)(F)F)=CN21	4.8		2.26	5.76		3.93	4.54	6.01 µM	0.779								4.95			
CCCC(=O)Nc1cc(/C=C/C(=O)N2C[C@@H]3C[C@]34C2=CC(=O)c2[nH]cc(C)c24)n(C)c1	25		0.337		1.68		1.6	0.298 µM and 0.238 µM	25		0.0208			0.142		0.0112		0.111		
O=C(C#Cc1ccccc1)NC/C=C/c1ccccc1	> 100		> 100	> 100		> 100	> 100	37 µM	> 100								> 100			
O=C(NCCCN1CCN(CCCNC(=O)Nc2cc(Cl)ccc2Cl)CC1)Nc1cc(Cl)ccc1Cl	> 100		54.1	34		> 100	> 100	> 100 µM	> 100								> 100			
O=C1C(=O)N(c2cc(Cl)ccc2Cl)C(=O)C(=O)C1c1nc2ccccc2s1	> 100		> 100	> 100		> 100	> 100	> 100 µM	> 100								> 100			
Cc1nc(Nc2ccc(Cl)cc2)sc1C(=O)Nc1cccc2c(=O)[nH][nH]c(=O)c12	74.3		80.3	> 100		> 100	> 100	69.2 µM	> 100								33			
